Measured values as given in patent publication US20100138957A1 (priority 2007, published 2010).

Experiments:
Pseudomonas aeruginosa = details: cited from earlier work
Xylella fastidiosa = details: in vivo
[1] = tested on: pathogenic Vibrio bacteria; details: intraperitoneal injection, juvenile coho salmon; cited from earlier work
[2] = tested on: 18 bacterial and fungal microorganisms; details: cited from earlier work
[3] = tested on: human intestinal epithelial cells; details: cited from earlier work

## KWKLFKKIGIGAVLKV TTGLPALKTLK [CEMA]
Pseudomonas aeruginosa
  MIC: 2.8 μg per ml

## MAKWKLFKKIGIGFKKAAHVGKAALTK [B-passerin]
Xylella fastidiosa
  time plants survived stringent disease challenges with no or lessened visible symptoms: up to 12 months
  time surviving plants remained symptomless: over 8 months
  transgenic plants that survived the high stringency greenhouse test: 90%

## Pleurocidin: 25-residue cationic antimicrobial peptide from skin secretions of winter flounder (GWGSFFKKAAHVGKHVGKAALTHYL; Pleurocidin; UniProt P81941 23-47, looked up)
[1]
  efficacy against lethal vibriosis compared to CEME: more effective
[2]
  microorganisms against which the peptide was effective: 17 of the 18
[3]
  cytotoxic effects: no cytotoxic effects
